Measurements as given in US4927819A, “Cyclo-octane neuroprotective agents” (Merck Sharp & Dohme Limited, priority 1987, dated 1990).
Where a name gives a salt, the structure may show the parent alone.

What was measured:
[1] = tested on: tonic seizures induced by N-methyl-DL-aspartic acid (NMDLA) in male Swiss-Webster mice; assay: Antagonism of NMDLA-induced tonic seizures in mice; format: in vivo, mouse (Swiss-Webster); conditions: iv; mouse, i.v. test compound 15 min before s.c. NMDLA 500 mg/kg; observed 30 min; probit analysis
Procedure: Compounds of the invention were examined for their ability to antagonise tonic seizures induced by N-methyl-DL-aspartic acid (NMDLA). Groups of 8 male Swiss-Webster mice (25 to 30 g) were injected intravenously with the test compound at various doses, 15 min before s.c. administration of NMDLA (500 mg/kg). […] ED50 values for the antagonism of the NMDLA induced tonic seizures were determined using probit analysis.

[2] = tested on: responses to NMDA in rat cortical slice; assay: Rat cortical slice: antagonism of responses to NMDA; format: cell-based; conditions: from righthand shift in NMDA concentration-response curve, read-out: apparent equilibrium constant (Kb)
Procedure: The effects of compounds of the invention on responses to NMDA were assessed using the rat cortical slice as described by Wong et al., Proc. Natl. Acad. Sci. USA, 1986, 83, 7104. The apparent equilibrium constant (Kb) was calculated from the righthand shift in the NMDA concentration-response curve produced by the compound under test.

Compound | ED50 [1] | Kb [2]
CC12Cc3ccccc3CC(N1)c1ccccc12 (stereo not drawn) [Example 1, 6-Methyl-5,6,11,12-tetrahydrodibenzo[a,e]cycloocten-6,11-imine Hydrochloride] | < 5 mg/kg | –
CC12Cc3ccc(Br)cc3CC(N1)c1ccccc12 (stereo not drawn) [Example 3, 2-Bromo-6-methyl-5,6,11,12-tetrahydrodibenzo[a,e]cycloocten-6.11-imine hydrochloride] | < 5 mg/kg | –
COc1ccc2c(c1)CC1NC(C)(C2)c2ccccc21 (stereo not drawn) [Example 12, 2-Methoxy-6-methyl-5,6,11,12-tetrahydrodibenzo [a,e]cycloocten-6,11-imine hydrochloride] | – | < 2000 nM
CC12Cc3ccc(O)cc3CC(N1)c1ccccc12 (stereo not drawn) [Example 13, 2-Hvdroxy-6-methyl-5,6,11,12-tetrahydrodibenzo[a,e]cycloocten-6.11-imine hydrochloride] | – | < 2000 nM
CC12Cc3ccccc3CC(O)(N1)c1ccccc12 (stereo not drawn) [Example 15, 11-Hydroxy-6-methyl-5,6,11,12-tetrahydrodibenzo[a,e]cycloocten-6,11-imine hydrochloride] | < 5 mg/kg | –
CC12Cc3ccccc3CC(C)(N1)c1ccccc12 [Example 16, 6,11-Dimethyl-5,6,11,12-tetrahydrodibenzo[a,e]cycloocten-6,11-imine hydrochloride] | < 5 mg/kg | –
